From patent US4229461A, “Fungicidal 6-(3,5-dichlorophenyl)perhydroimidazo[5,1-b]thiazole derivatives” (Mitsubishi Chemical Industries Limited, priority 1978, dated 1980)
≈ marks a conversion by molar mass, not a printed value.

Experiments:
Sclerotinia sclerotiorum [1] = assay: Preventive test against kidney bean stem rot; type: in vivo; conditions: 4 days, 25° C.
Procedure: Kidney bean plants (cultivar: Kintoki) were each grown in a 15 cm.phi. plastic pot to the trifoliate stage. The plants were sprayed with 10 ml/l pot of an aqueous diluted suspension of wettable powders of the chemicals of the invention and comparison chemical.
The wettable powders were prepared in a manner similar to example 1. After air drying for 5 hours, the plants were inoculated with mecelia of Sclerotinia sclerotiorum incubated with shaking in a Yeast-Glucose liquid medium, and kept in a humidic chamber at 25° C. for 4 days. Then the preventive value was calculated according to the equation given in test example 1.

[2] = tested on: Botrytis cinerea (strain I); assay: Antifungal Test (PDA medium), Botrytis cinerea (strain I); type: cell-based; conditions: 96 h, 25° C., 4 days, read-out: MIC Concentration
Procedure: (§1) Each chemical was mixed with PDA medium in an amount enough to obtain the pre-determined concentration level and solidified in 9 cm.phi. Petri dish. Then, various plant disease fungi were inoculated on the middle of the mixed agar plate and cultured at 25° C. for 4 days.
(§2) The minimum inhibition concentration (MIC) means that at which the development of the inoculated fungus was not recognized with the naked eye.

[3] = tested on: Botrytis cinerea (strain II); assay: Antifungal Test (PDA medium), Botrytis cinerea (strain II); type: cell-based; conditions: 96 h, resistant to benzoimidazole type fungicide, 25° C., 4 days, read-out: MIC Concentration
Procedure: as §1, §2
*Botrytis cinerea (strain II) is the strain resistant to
benzoimidazoletype fungicide e.g. Benlate, TopsinM.

Altrenaria Kikuchiana = assay: Antifungal Test (PDA medium), Altrenaria Kikuchiana; type: cell-based; conditions: 96 h, 25° C., 4 days, read-out: MIC Concentration
Procedure: as §1, §2

Altrenaria mali = assay: Antifungal Test (PDA medium), Altrenaria mali; type: cell-based; conditions: 96 h, 25° C., 4 days, read-out: MIC Concentration
Procedure: as §1, §2

Cochliobolus miyabeans = assay: Preventive test against Rice brown spot disease; type: in vivo, Cochliobolus miyabeans on rice plants (cultivar: Kinmaze); conditions: Oryza sativa, 48 h, read-out: Preventive Value
Procedure: Rice plants (cultivar: Kinmaze) were each grown in a 10 cm.phi. porcelain pot to the 3-4 leaves stage. The plants were sprayed with 10 ml/l pot of aqueous diluted suspensions of various types of wettable powders of the chemicals of the invention and comparison chemical [bis(dimethyl thiocarbamoyl)disulfide). The wettable powders were prepared in a manner similar to test example 1.
After air drying for 5 hours, the plants were inoculated with a spore suspension of Cochliobolus miyabeans incubated with a chaffy medium at 25° C. for 5 days.
These plants were kept in the humidic chamber at 27° C. for 48 hours after inoculation and the number of lesions were counted and preventive value was calculated according to the following equation. [formula]

Sclerotinia sclerotiorum [4] = assay: Antifungal Test (PDA medium), Sclerotinia sclerotiorum; type: cell-based; conditions: 96 h, 25° C., 4 days, read-out: MIC Concentration
Procedure: as §1, §2

Botrytis cinerea = assay: Preventive test against Cucumber Gray Mold disease; type: in vivo; conditions: 96 h, 4 days after inoculation, 23° C.
Procedure: Cucumber plants (cultivar: Satsukimidori), were each grown in a 15 cm.phi. plastic pot to the first leaf stage. The plants were sprayed with 10 ml/l pot of aqueous diluted suspensions of various types of wettable powders (including the wettable powder containing, as its active ingredient, compound No. 1 obtained in the Preparation Example 1, wettable powders, containing as active ingredients compounds Nos. 2-10 obtained in a manner similar to Preparation Example 1, and a wettable powder for a comparison chemical containing, as its active ingredient, tetrachloroisophthalonitrile obtained in manner similar to Preparation Example 1). After air-drying for 5 hours, the plants were inoculated with the mecelia of Botrytis cinerea inoculated with shaking in Yeast-Glucose liquid medium.
The cucumbers were kept in the humidic chamber at 23° C. for 4 days after inoculation and then checked with respect to their disease index. The checking was conducted as follows: The leaves were checked to determine the extent of lesion area and classified into six groups as indicated by indices 0, 1, 2, 3, 4, 5 based on the extent of the lesions and on the numbers of leaves n0, n1, n2, n3, n4, and n5 which corresponded to the indices, respectively, were also determined to calculate the disease index from the following equation.
1 lesion area of 1/5 times the total leaf area
2 lesion area of 2/5 times the total leaf area
3 lesion area of 3/5 times the total leaf area
4 lesion area of 4/5 times the total leaf area
5 lesion area above 4/5 times the total leaf area
(where n is the total number of checked leaves)
The preventive value was calculated from the following equation. [formula]

Botrytis allii = assay: Antifungal Test (PDA medium), Botrytis allii; type: cell-based; conditions: 96 h, 25° C., 4 days, read-out: MIC Concentration
Procedure: as §1, §2

Compound: Nc1c(Cl)cc([N+](=O)[O-])cc1Cl [2,6dichloro-4-nitroaniline, reference compound]
- Preventive Value (Sclerotinia sclerotiorum [1]; 500 ppm): 70.5%

Compound: CCCCNC(=O)n1c(NC(=O)OC)nc2ccccc21 [Benlate, reference compound]
- MIC [2]: 0.4 µg/mL (≈ 1.38 µM)
- MIC [3]: > 100 µg/mL
- MIC (Altrenaria Kikuchiana): > 100 µg/mL
- MIC (Altrenaria mali): > 100 µg/mL

Compound: CN(C)C(=S)SSC(=S)N(C)C [Bis(dimethyl thiocarbamoyl)disulfide, reference compound]
- pest or weed control at 500 ppm (Cochliobolus miyabeans): 83.3%

Compound: O=C1C2SCCN2C(=O)N1c1cc(Cl)cc(Cl)c1 (stereo not drawn) [Compound No. 1, 6-(3,5-dichlorophenyl)perhydroimidazo[5,1-b]thiazole-5,7-dion]
- pest or weed control at 500 ppm (Cochliobolus miyabeans): 95.1%
- MIC (Sclerotinia sclerotiorum [4]): 1.6 µg/mL (≈ 5.28 µM)
- MIC [2]: 3.1 µg/mL (≈ 10.2 µM)
- Preventive Value (Sclerotinia sclerotiorum [1]; 50 ppm): 95.3%
- Preventive Value (Sclerotinia sclerotiorum [1]; 100 ppm): 98.2%
- Preventive Value (Sclerotinia sclerotiorum [1]; 200 ppm): 100%
- pest or weed control at 62.5 ppm (Botrytis cinerea): 100%
- pest or weed control at 125 ppm (Botrytis cinerea): 100%
- pest or weed control at 250 ppm (Botrytis cinerea): 100%
- pest or weed control at 500 ppm (Botrytis cinerea): 100%
- MIC [3]: 3.1 µg/mL (≈ 10.2 µM)
- MIC (Botrytis allii): 6.2 µg/mL (≈ 20.5 µM)
- MIC (Altrenaria Kikuchiana): 3.1 µg/mL (≈ 10.2 µM)
- MIC (Altrenaria mali): 3.1 µg/mL (≈ 10.2 µM)

Compound: O=C1C2SCCN2C(=S)N1c1cc(Cl)cc(Cl)c1 (stereo not drawn) [Compound No. 2, 6-(3,5-dichlorophenyl)perhydroimidazo[5,1-b]thiazole-5-thion-7-on]
- pest or weed control at 500 ppm (Cochliobolus miyabeans): 88.4%
- Preventive Value (Sclerotinia sclerotiorum [1]; 50 ppm): 93.8%
- Preventive Value (Sclerotinia sclerotiorum [1]; 100 ppm): 96.5%
- Preventive Value (Sclerotinia sclerotiorum [1]; 200 ppm): 100%
- pest or weed control at 500 ppm (Botrytis cinerea): 92%

Compound: CC12SCCN1C(=O)N(c1cc(Cl)cc(Cl)c1)C2=O (stereo not drawn) [Compound No. 3, 7a-methyl-6-(3,5-dichlorophenyl)perhydroimidazo[5,1-b]thiazole-5,7-dion]
- pest or weed control at 500 ppm (Cochliobolus miyabeans): 96.2%
- MIC (Sclerotinia sclerotiorum [4]): 1.6 µg/mL (≈ 5.04 µM)
- MIC [2]: 1.6 µg/mL (≈ 5.04 µM)
- pest or weed control at 62.5 ppm (Botrytis cinerea): 100%
- pest or weed control at 125 ppm (Botrytis cinerea): 100%
- pest or weed control at 250 ppm (Botrytis cinerea): 100%
- pest or weed control at 500 ppm (Botrytis cinerea): 100%
- MIC [3]: 0.8 µg/mL (≈ 2.52 µM)
- MIC (Botrytis allii): 3.1 µg/mL (≈ 9.77 µM)
- MIC (Altrenaria Kikuchiana): 3.1 µg/mL (≈ 9.77 µM)
- MIC (Altrenaria mali): 3.1 µg/mL (≈ 9.77 µM)

Compound: CC12SCCN1C(=S)N(c1cc(Cl)cc(Cl)c1)C2=O (stereo not drawn) [Compound No. 4, 7a-methyl-6-(3,5-dichlorophenyl)perhydroimidazo[5,1-b]thiazole-5-thion-7-on]
- pest or weed control at 500 ppm (Cochliobolus miyabeans): 85.7%
- pest or weed control at 500 ppm (Botrytis cinerea): 93%

Compound: O=C1C2N(CCS2(=O)=O)C(=O)N1c1cc(Cl)cc(Cl)c1 (stereo not drawn) [Compound No. 5, 6-(3,5-dichlorophenyl)perhydroimidazo[5,1-b]thiazole-5,7-dion-1,1-dioxide]
- pest or weed control at 500 ppm (Cochliobolus miyabeans): 89.6%
- pest or weed control at 500 ppm (Botrytis cinerea): 91%

Compound: CC12C(=O)N(c3cc(Cl)cc(Cl)c3)C(=O)N1CCS2(=O)=O (stereo not drawn) [Compound No. 6, 7a-methyl-6-(3,5-dichlorophenyl)perhydroimidazo[5,1-b]thiazole-5,7-dion-1,1-dioxide]
- pest or weed control at 500 ppm (Cochliobolus miyabeans): 90.6%
- pest or weed control at 500 ppm (Botrytis cinerea): 90%

Compound: CCCC12SCCN1C(=O)N(c1cc(Cl)cc(Cl)c1)C2=O (stereo not drawn) [Compound No. 8, 7a-n-propyl-6-(3,5-dichlorophenyl)perhydroimidazo[5,1-b]thiazole-5,7-dion]
- pest or weed control at 500 ppm (Cochliobolus miyabeans): 85.4%
- pest or weed control at 500 ppm (Botrytis cinerea): 97%

Compound: CCC12SCCN1C(=S)N(c1cc(Cl)cc(Cl)c1)C2=O (stereo not drawn) [Compound No. 9, 7a-ethyl-6-(3,5-dichlorophenyl)perhydroimidazo[5,1-b]thiazole-5-thion-7-on]
- pest or weed control at 500 ppm (Cochliobolus miyabeans): 82.9%
- pest or weed control at 500 ppm (Botrytis cinerea): 96%

Compound: CCCC12SCCN1C(=S)N(c1cc(Cl)cc(Cl)c1)C2=O (stereo not drawn) [Compound No. 10, 7a-n-propyl-6-(3,5-dichlorophenyl)perhydroimidazo[5,1-b]thiazole-5-thion-7-on]
- pest or weed control at 500 ppm (Cochliobolus miyabeans): 83.2%
- pest or weed control at 500 ppm (Botrytis cinerea): 94%

Compound: N#Cc1c(Cl)c(Cl)c(Cl)c(C#N)c1Cl [Tetrachloro isophthalonitrile, reference compound]
- pest or weed control at 500 ppm (Botrytis cinerea): 65%

Compound: CCC12SCCN1C(=O)N(c1cc(Cl)cc(Cl)c1)C2=O (stereo not drawn) [compound 7, 7a-ethyl-6-(3,5-dichlorophenyl)perhydroimidazo[5,1-b]thiazole-5,7-dion]
- pest or weed control at 500 ppm (Cochliobolus miyabeans): 90.8%
- pest or weed control at 500 ppm (Botrytis cinerea): 100%
